These results are taken from patent publication US11246844B2, “Methods for inhibiting conversion of choline to trimethylamine (TMA)” (The Procter & Gamble Company, priority 2016, dated 2022).

Experiment [1] concerns plasma TMAO. Briefly: Preclinical screening method: plasma TMAO in mice on 1% Choline Added diet (Example 3). Type of experiment: in vivo, mice (C57bl/6). The settings on record: Mus musculus, 72 h; mice, oral gavage once daily, 310 mg/kg/day, day 3, blood 20 hours post gavage; read-out: Remaining plasma TMAO as percentage of plasma TMAO in same day vehicle control (% of control remaining). The method, then: Starting at day 0, mice (C57bl/6, ˜19 g, 10 wk of age; n=5/group) were maintained in accordance with the NIH guidelines in a 12:12 hr light:dark cycle and provided with 1% Choline Added diet (Envigo custom formulation prepared, similar to Teklad Global Rodent Diet 2018) ad libitum. Concurrent with introduction of the diet mice were gavaged once daily orally using a 1.5″ 22G ball-tip curved feeding needle to administer compound in 200 μl or less of water at one or multiple of the dose 0, 1.0, 3.1, 10, 31, 100 or 310 mg/kg/day. Urine was collected once daily in the morning. Animals were restrained by hand and bladder was expressed by gentle palpation of the pelvic region. Aliquots of 1-5 μl of urine were centrifuged at 1,300×g for 5 min in a 1.5 mL conical bottom tube with a snap top, to precipitate any potential cellular debris, and supernatants were transferred to a clean screw-cap tube with o-ring seal and stored at −80° C. until analysis. Sixty microliters or less of blood was collected at 20 hours post gavage, into a heparinized capillary tube. Blood was kept at 4° C., then spun using a centrifuge (5 min in centrifuge designed to capillary tubes) to separate plasma and hematocrit within 4 hours after collection. Plasma samples were stored at −80° C.
For measurement of TMA in plasma, samples were acidified (10 mM HCl final) prior to storage at −80° C. TMAO and trimethylamine (TMA) and their d9-isotopologues were quantified using stable isotope dilution HPLC with on-line electrospray ionization tandem mass spectrometry ([…]) methods as described in (Wang Z, Klipfell E, Bennett B J, et al. (2011) Gut flora metabolism of phosphatidylcholine promotes cardiovascular disease. Nature 472:57-63) using d4(1,1,2,2)-choline, d3(methyl)-TMAO, and d3(methyl)-TMA as internal standards. Concentrations of TMAO in urine were adjusted for urinary dilution by analysis of urine creatinine concentration. Samples were taken at different days during the studies and different doses were administered to avoid side effects at higher doses of some of the compounds.

In experiment [2] the test system is Pseudomonas aeruginosa. The settings on record: growth on glycine betaine and dimethyl glycine; cited from earlier work.

As for `C#CC[N+](C)(C)CCO` [ID 21, N-(2-hydroxyethyl)-N,N-dimethyl-2-propyn-1-aminium bromide], the response vs control in vivo at 310 mg/kg/day in experiment [1] stood at 0.94%. Besides, in experiment [2], the “Growth of P. aeruginosa on GB and DMG” value is listed as “inhibited”.

Consider `C#CC[N+](C)(C)CBr` [ID 41, bromomethyl-dimethyl-prop-2-ynyl-ammonium bromide], for which the response vs control in vivo at 310 mg/kg/day in experiment [1] was 0.23%.

Consider `C#CC[N+](C)(C)CI` [ID 42, iodomethyl-dimethyl-prop-2-ynyl-ammonium iodide], for which the response vs control in vivo at 310 mg/kg/day in experiment [1] stood at 0.1%.
